# Target: cortisol synthase (CYP11B1) (Macaca fascicularis, UniProt A0A2K5ULY1)
# Assay: Inhibition of Cortisol Synthesis
# Assay type: biochemical, cynomolgus monkey
# Conditions: cynomolgus adrenal gland mitochondria; 150 units of CYP11B1, 11-deoxycortisol as substrate, cortisol measured as product
# Description: The aldosterone synthase and cortisol synthase inhibition assays employ cynomolgus adrenal gland mitochondria as the source of aldosterone synthase (CYP11B2) and cortisol synthase (CYP11B1). […] Activity of CYP11B2 and CYP11B1 in these preparations is defined as the amount of enzyme that generates 1 pmol of product in one hour under the conditions described.
# Assays are performed in 96-well format in a final volume of 60 μL/well, containing 100 mM potassium phosphate, pH 7.4, 1% (v/v) DMSO, and additionally, 2 μM of corticosterone and 50 units of CYP11B2 activity. Reactions are started by the addition of NADPH to 1 mM and allowed to proceed for 90 minutes at 37° C. Reactions are terminated by the addition of 60 μL of MeCN containing an internal standard for mass spectrometry. One hundred microliters are then transferred to a glass filter plate and centrifuged at 570×g for 5 minutes and the filtrate is collected. Reaction product aldosterone is quantified by mass spectrometry. To determine the assay blank value (0% activity), NADPH is omitted from some reactions.
# Dose dependent inhibition is quantified by the inclusion of compound at various concentrations. Maximum activity (100%) is defined by reactions containing NADPH, but without compound.
# Assays are performed as for aldosterone synthase except for the use of 150 units of CYP11B1, 11-deoxycortisol as substrate and cortisol measured as product.
row,SMILES,IC50 [µM]
1,"CNC(=O)c1cccc2c1OCC(c1cncc(OC3CCN(C(C)=O)CC3)c1)O2 (single isomer, unassigned) [Cpd 33A, 2-[5-(1-Acetyl-piperidin-4-yloxy)-pyridin-3-yl]-2,3-dihydro-benzo[1,4]dioxine-5-carboxylic acid methylamide]",> 30
2,"CNC(=O)c1cccc2c1OCC(c1cncc(OC3CCN(C(C)=O)CC3)c1)O2 (single isomer, unassigned) [Cpd 33B, 2-[5-(1-Acetyl-piperidin-4-yloxy)-pyridin-3-yl]-2,3-dihydro-benzo[1,4]dioxine-5-carboxylic acid methylamide]",> 30
3,"N#Cc1cccc2c1OCC(c1cncc(CN3CCOC3=O)c1)O2 (single isomer, unassigned) [Cpd 34A, 2-[5-(2-Oxo-oxazolidin-3-ylmethyl)-pyridin-3-yl]-2,3-dihydro-benzo[1,4]dioxine-5-carbonitrile]",8.5
4,"N#Cc1cccc2c1OCC(c1cncc(CN3CCOC3=O)c1)O2 (single isomer, unassigned) [Cpd 34B, 2-[5-(2-Oxo-oxazolidin-3-ylmethyl)-pyridin-3-yl]-2,3-dihydro-benzo[1,4]dioxine-5-carbonitrile]",> 30
5,"N#Cc1cccc2c1OCC(c1cncc(CN3CCOCC3=O)c1)O2 (single isomer, unassigned) [Cpd 36A, 2-[5-(3-Oxo-morpholin-4-ylmethyl)-pyridin-3-yl]-2,3-dihydro-benzo[1,4]dioxine-5-carbonitrile]",> 30
6,"CS(=O)(=O)Cc1cncc(C2COc3c(C#N)cccc3O2)c1 (single isomer, unassigned) [Cpd 37A, 2-(5-Methanesulfonylmethyl-pyridin-3-yl)-2,3-dihydro-benzo[1,4]dioxine-5-carbonitrile]",25
7,"CC(=O)N1CCC(Oc2cncc(C3COc4c(C#N)cccc4O3)c2)CC1 (single isomer, unassigned) [Cpd 38A, 2-[5-(1-Acetyl-piperidin-4-yloxy)-pyridin-3-yl]-2,3-dihydro-benzo[1,4]dioxine-5-carbonitrile]",15
8,"N#Cc1cccc2c1OCC(c1cncc(CNC(=O)C3CC3)c1)O2 (single isomer, unassigned) [Cpd 39B, Cyclopropanecarboxylic acid [5-(5-cyano-2,3-dihydro-benzo[1,4]dioxin-2-yl)-pyridin-3-ylmethyl]-amide]",> 30
9,"N#Cc1cccc2c1OCC(c1cncc(-c3ccc(S(N)(=O)=O)cc3)c1)O2 (single isomer, unassigned) [Cpd 40A, 4-[5-(5-Cyano-2,3-dihydro-benzo[1,4]dioxin-2-yl)-pyridin-3-yl]-benzenesulfonamide]",> 30
10,"N#Cc1cccc2c1OCC(c1cncc(-c3ccc(S(N)(=O)=O)cc3)c1)O2 (single isomer, unassigned) [Cpd 40B, 4-[5-(5-Cyano-2,3-dihydro-benzo[1,4]dioxin-2-yl)-pyridin-3-yl]-benzenesulfonamide]",11
11,"N#Cc1cccc2c1OCC(c1cncc(CN3CCCCS3(=O)=O)c1)O2 (single isomer, unassigned) [Cpd 41A, 2-[5-(1,1-Dioxo-1lambda6-[1,2]thiazinan-2-ylmethyl)-pyridin-3-yl]-2,3-dihydro-benzo[1,4]dioxine-5-carbonitrile]",24
12,"CN(C)C(=O)COCc1cncc(C2COc3c(C#N)cccc3O2)c1 (single isomer, unassigned) [Cpd 42A, 2-[5-(5-Cyano-2,3-dihydro-benzo[1,4]dioxin-2-yl)-pyridin-3-ylmethoxy]-N,N-dimethyl-acetamide]",18
13,"N#Cc1cccc2c1OCC(c1cncc(CC(=O)N3CCOCC3)c1)O2 (single isomer, unassigned) [Cpd 43A, 2-[5-(2-Morpholin-4-yl-2-oxo-ethyl)-pyridin-3-yl]-2,3-dihydro-benzo[1,4]dioxine-5-carbonitrile]",22
14,"N#Cc1cccc2c1OCC(c1cncc(CC(=O)N3CCOCC3)c1)O2 (single isomer, unassigned) [Cpd 43B, 2-[5-(2-Morpholin-4-yl-2-oxo-ethyl)-pyridin-3-yl]-2,3-dihydro-benzo[1,4]dioxine-5-carbonitrile]",> 30
15,"CS(=O)(=O)COc1cncc(C2COc3c(C#N)cccc3O2)c1 (single isomer, unassigned) [Cpd 44B, 2-(5-Methanesulfonylmethoxy-pyridin-3-yl)-2,3-dihydro-benzo[1,4]dioxine-5-carbonitrile]",13
16,"NC(=O)c1cccc2c1OCC(c1cncc(OC3CCOCC3)c1)O2 (single isomer, unassigned) [Cpd 47A, 2-[5-(Tetrahydro-pyran-4-yloxy)-pyridin-3-yl]-2,3-dihydro-benzo[1,4]dioxine-5-carboxylic acid amide]",8.5

# Stronger by IC50, values ahead:
row,IC50 [µM],SMILES
1,0.35,"NC(=O)c1cccc2c1OCC(c1cncc(C3(F)CCOCC3)c1)O2 (single isomer, unassigned) [Cpd 32B, 2-[5-(4-Fluoro-tetrahydro-pyran-4-yl)-pyridin-3-yl]-2,3-dihydro-benzo[1,4]dioxine-5-carboxylic acid amide]"
2,0.53,"CN1C(=O)CCC1c1cncc(C2COc3c(C#N)cccc3O2)c1 (single isomer, unassigned) [Cpd 35A, 2-[5-(1-Methyl-5-oxo-pyrrolidin-2-yl)-pyridin-3-yl]-2,3-dihydro-benzo[1,4] dioxine-5-carbonitrile]"
3,6.2,"CN1C(=O)CCC1c1cncc(C2COc3c(C#N)cccc3O2)c1 (single isomer, unassigned) [Cpd 35B, 2-[5-(1-Methyl-5-oxo-pyrrolidin-2-yl)-pyridin-3-yl]-2,3-dihydro-benzo[1,4] dioxine-5-carbonitrile]"
4,5.8,"N#Cc1cccc2c1OCC(c1cncc(CN3CCOCC3=O)c1)O2 (single isomer, unassigned) [Cpd 36B, 2-[5-(3-Oxo-morpholin-4-ylmethyl)-pyridin-3-yl]-2,3-dihydro-benzo[1,4]dioxine-5-carbonitrile]"
5,8,"CS(=O)(=O)Cc1cncc(C2COc3c(C#N)cccc3O2)c1 (single isomer, unassigned) [Cpd 37B, 2-(5-Methanesulfonylmethyl-pyridin-3-yl)-2,3-dihydro-benzo[1,4]dioxine-5-carbonitrile]"
6,0.7,"CC(=O)N1CCC(Oc2cncc(C3COc4c(C#N)cccc4O3)c2)CC1 (single isomer, unassigned) [Cpd 38B, 2-[5-(1-Acetyl-piperidin-4-yloxy)-pyridin-3-yl]-2,3-dihydro-benzo[1,4]dioxine-5-carbonitrile]"
7,7.3,"N#Cc1cccc2c1OCC(c1cncc(CNC(=O)C3CC3)c1)O2 (single isomer, unassigned) [Cpd 39A, Cyclopropanecarboxylic acid [5-(5-cyano-2,3-dihydro-benzo[1,4]dioxin-2-yl)-pyridin-3-ylmethyl]-amide]"
8,3.9,"N#Cc1cccc2c1OCC(c1cncc(CN3CCCCS3(=O)=O)c1)O2 (single isomer, unassigned) [Cpd 41B, 2-[5-(1,1-Dioxo-1lambda6-[1,2]thiazinan-2-ylmethyl)-pyridin-3-yl]-2,3-dihydro-benzo[1,4]dioxine-5-carbonitrile]"
9,1.3,"CN(C)C(=O)COCc1cncc(C2COc3c(C#N)cccc3O2)c1 (single isomer, unassigned) [Cpd 42B, 2-[5-(5-Cyano-2,3-dihydro-benzo[1,4]dioxin-2-yl)-pyridin-3-ylmethoxy]-N,N-dimethyl-acetamide]"
10,2.2,"CS(=O)(=O)COc1cncc(C2COc3c(C#N)cccc3O2)c1 (single isomer, unassigned) [Cpd 44A, 2-(5-Methanesulfonylmethoxy-pyridin-3-yl)-2,3-dihydro-benzo[1,4]dioxine-5-carbonitrile]"
11,0.21,"CCOc1cncc(C2COc3c(cccc3C(N)=O)O2)c1 (single isomer, unassigned) [Cpd 45A, 2-(5-ethoxy-pyridin-3-yl)-2,3-dihydro-benzo[1,4]dioxine-5-carboxylic acid amide]"
12,0.28,"CCOc1cncc(C2COc3c(cccc3C(N)=O)O2)c1 (single isomer, unassigned) [Cpd 45B, 2-(5-ethoxy-pyridin-3-yl)-2,3-dihydro-benzo[1,4]dioxine-5-carboxylic acid amide]"
13,7,"NC(=O)c1cccc2c1OCC(c1cncc(O[C@@H]3CCOC3)c1)O2 (single isomer, unassigned) [Cpd 46A]"
14,4.2,"NC(=O)c1cccc2c1OCC(c1cncc(O[C@@H]3CCOC3)c1)O2 (single isomer, unassigned) [Cpd 46B]"
15,1.2,"NC(=O)c1cccc2c1OCC(c1cncc(OC3CCOCC3)c1)O2 (single isomer, unassigned) [Cpd 47B, 2-[5-(Tetrahydro-pyran-4-yloxy)-pyridin-3-yl]-2,3-dihydro-benzo[1,4]dioxine-5-carboxylic acid amide]"
16,3.1,"CC(C)C(=O)N1CCC(Oc2cncc(C3COc4c(cccc4C(N)=O)O3)c2)CC1 (single isomer, unassigned) [Cpd 48A, 2-[5-(1-isobutyryl-piperidin-4-yloxy)-pyridin-3-yl]-2,3-dihydro-benzo[1,4]dioxine-5-carboxylic acid amide]"

# From patent publication US9745289B2, “Aldosterone synthase inhibitors” (Boehringer Ingelheim International GmbH, priority 2014, dated 2017)
